Results from patent US11779536B2 (Ocular Therapeutix, Inc., priority 2020, dated 2023).
Several values for one entry are separate records, joined by “and”; a condition that tells them apart may be missing. Equal entries are not always repeated. Where two headings read alike, the source gives them in different places.

Columns and labels:
[1] = Proof of concept PK study Example 3.2: cyclosporine tear fluid concentration and drug released from inserts; assay type: in vivo, beagle dogs; conditions: beagle, insert nominal dose 0.44 mg, over 32 days, assuming consistent daily release
From the text: Inserts were removed at 32 days to determine the amount of remaining drug compared to the administered dose.

[2] = beagle, insert nominal dose 0.7 mg, in 6 weeks
[3] = for Cyclosporine per insert Mean ± SD: initial 671±13 μg; for Cyclosporine per insert, OD: 0.67 mg insert (initial 671±13 μg), 9% 4a20K SG/trilysine

## CC=CCC(C)C(O)C1C(=O)NC(CC)C(=O)N(C)CC(=O)N(C)C(CC(C)C)C(=O)NC(C(C)C)C(=O)N(C)C(CC(C)C)C(=O)NC(C)C(=O)NC(C)C(=O)N(C)C(CC(C)C)C(=O)N(C)C(CC(C)C)C(=O)N(C)C(C(C)C)C(=O)N1C (centres unmarked) [cyclosporine, 30-ethyl-33-(1-hydroxy-2-methylhex-4-enyl)-1,4,7,10,12,15,19,25,28-nonamethyl-6,9,18,24-tetrakis(2-methylpropyl)-3,21-di(propan-2-yl)-1,4,7,10,13,16,19,22,25,28,31-undecazacyclotritriacontane-2,5,8,11,14,17,20,23,26,29,32-undecone]
[1]
  estimated daily delivered dose: 6.3 µg/day
[2]
  average amount of cyclosporine released: 0.37 mg
[3]; amount left in inserts removed from beagles at day 28, all eyes
  Cyclosporine per insert Mean ± SD: 576 ± 18 µg
[3]; amount left in inserts removed from beagles at day 50, all eyes
  Cyclosporine per insert Mean ± SD: 494 ± 32 µg
[3]; amount left in single insert removed from beagle right eye at day 28
  Cyclosporine per insert, OD: 596 µg
[3]; amount left in single insert removed from beagle right eye at day 50
  Cyclosporine per insert, OD: 520 µg and 521 µg and 451 µg
[3]; beagle, initial dose 671±13 μg, 28 days
  released amount: 3.4 µg
[3]; beagle, initial dose 671±13 μg, 50 days
  released amount: 3.5 µg
[3]; beagle, initial dose 671±13 μg, inserts removed at 28 days
  amount of cyclosporine left in the removed insert: 576 ± 18 µg
[3]; beagle, initial dose 671±13 μg, inserts removed at 50 days
  amount of cyclosporine left in the removed insert: 494 ± 32 µg
[3]; beagle, initial dose 671±13 μg, over 28 and 50 days
  daily estimated delivered dose: approximately 3.5 μg/day
